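Tested at 5 concentrations; 48 h exposure; 96-well plates; endpoints linearly interpolated, else capped at highest concentration. GI50 = concentration required for 50% inhibition of growth. TGI denotes the concentration required for complete inhibition of growth.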
Tests used:
Experiment in all cases: growth of human tumour cells (NCI), 48 h
BT-549 breast = tested on: BT-549 breast
A498 renal = tested on: A498 renal
OVCAR-8 ovarian = tested on: OVCAR-8 ovarian
OVCAR-4 ovarian = tested on: OVCAR-4 ovarian
SR leukemia = tested on: SR leukemia
786-0 renal = tested on: 786-0 renal
UACC-257 melanoma = tested on: UACC-257 melanoma
OVCAR-5 ovarian = tested on: OVCAR-5 ovarian
U251 CNS = tested on: U251 CNS
RXF 393 renal = tested on: RXF 393 renal

Structure (SMILES) | GI50 (BT-549 breast) [µM] | TGI (BT-549 breast) [µM] | GI50 (A498 renal) [µM] | TGI (A498 renal) [µM] | GI50 (OVCAR-8 ovarian) [µM] | TGI (OVCAR-8 ovarian) [µM] | GI50 (OVCAR-4 ovarian) [µM] | TGI (OVCAR-4 ovarian) [µM] | GI50 (SR leukemia) [µM] | TGI (SR leukemia) [µM] | GI50 (786-0 renal) [µM] | TGI (786-0 renal) [µM] | GI50 (UACC-257 melanoma) [µM] | TGI (UACC-257 melanoma) [µM] | TGI (OVCAR-5 ovarian) [µM] | TGI (U251 CNS) [µM] | TGI (RXF 393 renal) [µM] | GI50 (OVCAR-5 ovarian) [µM] | GI50 (U251 CNS) [µM] | GI50 (RXF 393 renal) [µM]
C=CC[Se]C(=O)c1ccccc1OC(C)=O | 1.66 | 3.2 | 0.885 | 5.62 | 1.52 | 3.56 | 1.68 | 3.19 | 2.41 | 19.2 | 1.88 | 3.49 | 2.09 | 5 | – | – | – | – | – | –
CCOC(=O)CC(=O)N(c1ccc(OC)cc1)C(C(=O)OC)c1ccccc1 (centres undefined) | – | – | – | – | – | > 100 | – | – | – | > 100 | – | > 100 | – | > 100 | > 100 | – | – | – | – | –
COC(=O)C1C(=O)O[C@@H](c2ccc(OC)cc2)C1C(=O)OC (some centres undefined) | – | – | – | > 100 | – | > 100 | – | > 100 | – | > 100 | – | > 100 | – | > 100 | > 100 | > 100 | > 100 | – | – | –
NC(=O)c1cccc(N)c1 | > 100 | > 100 | > 100 | > 100 | > 100 | > 100 | > 100 | > 100 | > 100 | > 100 | > 100 | > 100 | – | – | > 100 | > 100 | > 100 | > 100 | > 100 | > 100
CC(=O)N(/N=C\c1ccc([N+](=O)[O-])cc1)c1ccccc1 | – | – | – | > 100 | – | > 100 | – | > 100 | – | – | – | > 100 | – | > 100 | > 100 | > 100 | – | – | – | –
Clc1ccc(-c2nc(-c3c[nH]c4ncccc34)cs2)cc1 | > 100 | > 100 | > 100 | > 100 | > 100 | > 100 | 65.8 | > 100 | – | – | > 100 | > 100 | > 100 | > 100 | > 100 | > 100 | > 100 | > 100 | > 100 | > 100
C[C@H]1O[C@@H](O[C@H]2[C@@H](O)C[C@H](O[C@H]3[C@@H](O)C[C@H](O[C@H]4CC[C@]5(C)C6C[C@@H](O)[C@]7(C)[C@@H](C8=CC(=O)OC8)CC[C@]7(O)C6CC[C@@H]5C4)O[C@@H]3C)O[C@@H]2C)C[C@H](O)[C@@H]1O (some centres undefined) | 0.0246 | 0.0928 | – | – | 0.0788 | 0.198 | 0.101 | 0.306 | 0.0552 | 0.307 | 0.06 | 0.16 | 0.101 | 0.237 | 0.286 | 0.145 | 0.198 | 0.114 | 0.0668 | 0.0634
CC(=O)c1cc2c3c(c1)c1cc4c(cc1c(=O)n3CC2)OCO4 | – | – | – | – | – | > 100 | – | > 100 | – | 34.9 | – | > 100 | – | > 100 | > 100 | > 100 | > 100 | – | – | –
[Ce+3].[Cl-].[O-]/N=C(\c1ccccc1)c1ccccn1.[O-]/N=C(\c1ccccc1)c1ccccn1.[O-]/N=C(\c1ccccc1)c1ccccn1 | – | – | 54 | > 100 | 37.9 | > 100 | 55 | > 100 | – | – | 47 | > 100 | 38 | > 100 | > 100 | > 100 | 96.3 | > 100 | > 100 | 34.4
COC(=O)C1C2CC3C(OC(=O)C31)C2I (centres undefined) | – | – | – | > 100 | – | > 100 | – | > 100 | – | > 100 | – | > 100 | – | > 100 | > 100 | > 100 | > 10 | – | – | –
NC(=O)c1ncn(C2OC(CO)C(O)C2O)n1 (centres undefined) | > 100 | > 100 | > 100 | > 100 | 45.4 | > 100 | > 100 | > 100 | > 100 | > 100 | > 100 | > 100 | > 100 | > 100 | > 100 | – | > 100 | > 100 | – | > 100
COc1ccc(C2Cc3cc(OC)c(OC)c(OC)c3C2=O)cc1 (centres undefined) | – | – | – | > 100 | – | > 100 | – | > 100 | – | – | – | > 100 | – | > 100 | > 100 | > 100 | – | – | – | –
CCC[CH2][Sn]([CH2]CCC)([O]C(=O)c1cc(OC)c(OC)c(OC)c1)[O]C(=O)c1cc(OC)c(OC)c(OC)c1 | – | – | 1.17 | 3.02 | 1.5 | 3.37 | 1.48 | 2.9 | – | – | 1.29 | 2.57 | 1.09 | 2.47 | 3.83 | 2.55 | 1.12 | 2.32 | 1.28 | 0.297
O=C(/C=C/c1ccccc1O)c1ccccc1 | – | – | 15.2 | 28.6 | 4.39 | 17.7 | – | – | 1.83 | 5.8 | 14.4 | 29.7 | 12.1 | 25.3 | 31.1 | 14.4 | 23.4 | 15.3 | 4.18 | 10.3
O=[n+]1cnn([O-])c2ccccc21 | – | 54.4 | – | > 100 | – | > 100 | – | – | – | > 100 | – | 42.1 | – | 37.1 | > 100 | > 100 | 59.6 | – | – | –
OCC1OC(n2ccc3cnccc32)CC1O (centres undefined) | – | – | – | > 100 | – | > 100 | – | > 100 | – | > 100 | – | > 100 | – | > 100 | > 100 | > 100 | – | – | – | –
c1ccc2c(c1)nnn1c3cnccc3nc21 | – | – | – | > 100 | – | > 100 | – | 96.6 | – | – | – | > 100 | – | > 100 | > 100 | > 100 | 66.3 | – | – | –

— PubChem BioAssay (NCI)
